Values of other authors in patent publication US11559495B1, “Icariin nano-pharmaceutical formulation” (King Abdulaziz University, priority 2022, dated 2023).

Experiments:
[1] = target: T1, MAO-B (Homo sapiens, UniProt P27338)
T1 sequence (P27338 1-520): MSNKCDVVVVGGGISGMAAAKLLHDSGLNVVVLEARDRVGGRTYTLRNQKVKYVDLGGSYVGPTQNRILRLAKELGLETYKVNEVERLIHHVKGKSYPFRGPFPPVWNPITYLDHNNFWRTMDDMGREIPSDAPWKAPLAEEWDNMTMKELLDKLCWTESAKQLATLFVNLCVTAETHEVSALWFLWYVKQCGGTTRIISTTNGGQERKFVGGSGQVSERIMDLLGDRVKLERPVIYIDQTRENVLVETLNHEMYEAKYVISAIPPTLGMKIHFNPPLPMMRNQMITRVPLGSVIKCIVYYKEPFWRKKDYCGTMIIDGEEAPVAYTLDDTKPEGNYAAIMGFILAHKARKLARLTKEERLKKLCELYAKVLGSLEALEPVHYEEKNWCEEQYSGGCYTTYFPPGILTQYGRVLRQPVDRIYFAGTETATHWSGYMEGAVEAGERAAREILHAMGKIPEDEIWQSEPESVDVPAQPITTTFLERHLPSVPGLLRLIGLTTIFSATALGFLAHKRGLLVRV

[2] = target: cGMP-specific phosphodiesterase type 5 (PDE5) (Homo sapiens, UniProt O76074)
[3] = target: T2, MAO-A (Homo sapiens, UniProt P21397)
T2 sequence (P21397 1-527): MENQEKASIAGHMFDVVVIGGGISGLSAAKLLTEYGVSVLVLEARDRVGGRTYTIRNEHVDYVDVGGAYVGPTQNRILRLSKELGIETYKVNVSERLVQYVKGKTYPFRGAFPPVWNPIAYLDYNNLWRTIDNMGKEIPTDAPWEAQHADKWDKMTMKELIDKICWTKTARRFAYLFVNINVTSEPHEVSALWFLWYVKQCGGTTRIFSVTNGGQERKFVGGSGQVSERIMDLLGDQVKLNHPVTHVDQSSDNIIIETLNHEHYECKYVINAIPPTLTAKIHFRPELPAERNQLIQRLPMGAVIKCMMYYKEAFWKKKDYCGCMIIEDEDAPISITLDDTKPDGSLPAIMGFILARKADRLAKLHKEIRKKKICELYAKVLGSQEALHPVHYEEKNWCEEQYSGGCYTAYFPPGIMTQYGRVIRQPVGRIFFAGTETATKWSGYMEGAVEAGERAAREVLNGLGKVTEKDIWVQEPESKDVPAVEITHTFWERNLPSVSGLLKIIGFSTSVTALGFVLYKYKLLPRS

- MAO-B activity inhibition [1]: inhibited
- PDE5 inhibition [2]: inhibitor
- MAO-A activity inhibition [3]: inhibited
SMILES: COc1ccc(-c2oc3c(CC=C(C)C)c(O[C@@H]4O[C@H](CO)[C@@H](O)[C@H](O)[C@H]4O)cc(O)c3c(=O)c2O[C@@H]2O[C@@H](C)[C@H](O)[C@@H](O)[C@H]2O)cc1 [ICA, 7-(β-D-Glucopyranosyloxy)-5-hydroxy-4′-methoxy-8-(3-methylbut-2-en-1-yl)-3-(α-L-rhamnopyranosyloxy)flavone]
